Results published in patent US8877437B1, “Methods of using dyes in association with nucleic acid staining or detection” (Biotium, Inc., priority 2009, dated 2014).
Like-named read-outs stand apart in the source and are kept apart here.

How the values were obtained:
[1] = Stability of dye in gel electrophoresis buffer (room temperature, microwave heating); assay type: physicochemical
[2] = Hydrolytic and thermal stability for pre-cast gel preparation and storage; assay type: physicochemical
Text: In a gel electrophoresis application, an agarose gel may be prepared by heating (via microwave, for example) a suspension of agarose powder in an electrophoresis buffer, such as lithium borate buffer, thereby producing a hot agarose solution, pouring the solution onto a slab, and cooling the solution, thereby producing a useful gel. […] For example, in a pre-cast gel staining application, SYBR Green I dye is generally combined with an agarose solution after the initial agarose suspension has been heated and the resulting agarose solution has been cooled as much as possible. Combining the SYBR Green I dye with the agarose solution in this manner may be a delicate task, as if the temperature of the agarose solution is too high, the dye my decompose, and if the temperature of the agarose solution is too low, the agarose solution may gel up such that the dye and the solution are inadequately combined or mixed. Further by way of example, in a pre-cast gel staining application, a pre-cast gel prepared with SYBR Green I is generally used within 24 hours, as it may lose utility thereafter. […] This dye may offer sufficient to exceptional stability, as well as low or minimal background fluorescence relative to EB and low or minimal toxicity relative to EB, as further described below.

[3] = cited from earlier work
cells = settings: cited from earlier work
nucleic acid = settings: cited from earlier work
aquatic life = settings: in vivo; cited from earlier work
[4] = test not named; cited from earlier work
[5] = pre-cast gel containing the dye

Nc1ccc2c(c1)c(-c1ccccc1)[n+](CCCCCC(=O)NCCCOCCOCCOCCCNC(=O)CCCCC[n+]1c(-c3ccccc3)c3cc(N)ccc3c3ccc(N)cc31)c1cc(N)ccc21 [Dye No. 35]
time heated in a microwave oven without decomposition ([1]; in TBE buffer): at least 10 minutes
time stable in electrophoresis buffer ([1]; lithium borate buffer, room temperature): at least 6 months
hydrolytic and thermal stability for preparation of a pre-cast gel [2]: sufficient hydrolytic and thermal stability
storage of pre-cast gel without loss of performance [2, 5]: at least 3 months

CCCN(CCCN(C)C)c1cc(/C=C2/Sc3ccccc3N2C)c2ccccc2[n+]1-c1ccccc1 [SYBR Green I]
time within which pre-cast gel is used before losing utility [3, 5]: ≤ 24 h
cytotoxicity (cells): cytotoxic at relatively high concentrations

CN(C)c1ccc2cc3ccc(N(C)C)cc3nc2c1 [AO, Acridine orange]
affinity for nucleic acid (nucleic acid): very low

Nc1ccc2c(c1)c(-c1ccccc1)[n+](CCCCCC(=O)NCCCOCCOCCOCCCNC(=O)CCCCC[n+]1c(-c3ccccc3)c3cc(N)ccc3c3ccc(N)cc31)c1cc(N)ccc21.[I-].[I-] [GelRed]
safety to aquatic life (aquatic life): safe to aquatic life
cytotoxicity (cells): noncytotoxic

CC[n+]1c(-c2ccccc2)c2cc(N)ccc2c2ccc(N)cc21 [EB, ethidium bromide]
hydrolytic and thermal stability for preparation of a pre-cast gel ([3]; reference dyes, general statement): sufficiently stable, both hydrolytically and thermally
mutagenicity [4]: powerful mutagen

CCCN1C=C/C(=C\c2sc3ccccc3[n+]2C)c2ccccc21 [SYBR Safe]
safety to aquatic life (aquatic life): safe to aquatic life
cytotoxicity (cells): cytotoxic at relatively high concentrations

CN(C)c1ccc2cc3ccc(N(C)C)cc3[n+](CCCCCC(=O)NCCCOCCOCCOCCCNC(=O)CCCCC[n+]3c4cc(N(C)C)ccc4cc4ccc(N(C)C)cc43)c2c1.[I-].[I-] [GelGreen]
safety to aquatic life (aquatic life): safe to aquatic life
cytotoxicity (cells): noncytotoxic
